This note sets out measurements from patent publication US20230028224A1, “Novel Topical Therapy” (priority 2019, published 2023).

Assay [1] is described as follows: injection of the Supratrochlear nerve followed by SPG block. In kind it is in vivo. Conditions: bupivacaine 0.5% injected to the Supratrochlear nerve, SPG block subsequently. The source says:
(§1) Another aspect of the invention is the combination of stimulation of SPG with branches of Trigeminal nerves, or occipital nerves. There is known C-2 and 3 connection with Trigeminal nerve and SPG and likely with C1.

The nature of assay [2]: injection of occipital nerves followed by SPG block. In kind it is in vivo. Conditions: 0.5% injected into occipital nerves, then SPG block.
Description: as §1

`CCCCN1CCCCC1C(=O)Nc1c(C)cccc1C` (centres unmarked) [bupivacaine]: the “result of subsequent SPG block” value in assay [1] is “better result with SPG block subsequently”. Moreover, the headache result in assay [2] was “headache was further decreased with SPG block”.
